Reference: PMC12227546 (Nature Communications, 2025)
Residue numbers refer to the chain shown, from its start. Names may count otherwise. Each block holds one molecule with its values, some of them ahead of it.

How the values were obtained:
[1] = target: T1, taurine transporter (TauT) (Homo sapiens, UniProt P31641); test: cryo-EM structure; assay type: cell-based
T1 sequence (P31641 1-620): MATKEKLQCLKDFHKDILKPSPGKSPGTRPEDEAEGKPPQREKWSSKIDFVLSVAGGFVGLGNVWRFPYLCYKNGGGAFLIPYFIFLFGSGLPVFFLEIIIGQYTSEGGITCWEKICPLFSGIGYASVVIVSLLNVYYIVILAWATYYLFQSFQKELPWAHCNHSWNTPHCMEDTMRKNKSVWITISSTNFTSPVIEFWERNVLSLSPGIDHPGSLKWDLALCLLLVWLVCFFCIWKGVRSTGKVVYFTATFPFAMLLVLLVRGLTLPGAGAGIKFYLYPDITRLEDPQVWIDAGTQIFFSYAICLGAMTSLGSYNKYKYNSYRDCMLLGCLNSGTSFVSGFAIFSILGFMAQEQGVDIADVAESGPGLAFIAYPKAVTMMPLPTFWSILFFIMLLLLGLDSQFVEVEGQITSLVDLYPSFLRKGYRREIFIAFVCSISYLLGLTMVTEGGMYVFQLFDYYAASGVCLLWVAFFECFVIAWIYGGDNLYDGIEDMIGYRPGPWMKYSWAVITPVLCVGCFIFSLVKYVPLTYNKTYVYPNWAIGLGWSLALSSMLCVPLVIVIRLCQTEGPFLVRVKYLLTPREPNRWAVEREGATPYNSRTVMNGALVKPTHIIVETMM

[2] = substrate: NCCS(=O)(=O)O; test: cells, lysate or membranes; assay type: cell-based, Homo sapiens; conditions: Na+ and Cl- central pocket

IC50 [1]: 1300 µM
Molecule: NCCCC(=O)O [GABA]

B1: taurine transporter (TauT) (Homo sapiens; F58A) (protein)
chain: T1 sequence (P31641 1-620) with F58A
Km [2]: 166.2 µM
